Assay: Light stability (discoloration by light exposure)
Type: physicochemical
Settings: ambient / room light
Description: The term “light stable” in the present context is meant to indicate either of two conditions; (i) no visible change in the color of the compositions of patient and wound care products after 24 hour exposure to light conditions typically encountered indoors in hospital, offices, or home that are normally used to aid visibility.

For `[Ag+].c1ccc2[n-]cnc2c1` [silver benzimidazole complex], the “light sensitivity of the solid powder” value was “remained unchanged”.

— patent US10251392B2, “Antimicrobial devices and compositions” (Avent, Inc., priority 2004, dated 2019)
